Values joined by “and” are separate entries in the source; they are usually repeats but may differ in a detail not shown here. Identical values can stand only once. Like-named read-outs stand apart in the source and are kept apart here.
Tests used:
[1] = test system: MRGPRX4-expressing HEK293 cells (Gαq signaling pathway); assay: Pharmacological blocker experiments: phospho-drug evoked calcium response in MRGPRX4-expressing HEK293 cells after inhibitor preincubation
Procedure: Various HEK293 cell lines were plated on PDL-coated glass coverslips. […] For pharmacological blocker experiments, cells were pre-incubated with signaling pathway inhibitors, including YM254890, U73122, and thapsigargin, for 30 min before imaging.
Traces of [Ca2+] from MRGPRX4-expressing HEK293 cells stimulated with (A) 1 µM
U73122 (middle), or 10 µM sarco/endoplasmic reticulum Ca2+-ATPase inhibitor thapsigargin
(right) for 30 min before imaging.
independent experiments, each performed in quadruplicate.

[2] = cited from earlier work
mock [3] = assay: Calcium mobilization assay (FLIPR), mock-transfected control cells (Fig. 3E and 3F); assay type: cell-based
WT NP1-3 DRG neurons = assay: GCaMP6s calcium imaging of NP1-3 DRG neurons from Pirt-Cre; Rosa-lsl-GCaMP6s mice; assay type: cell-based, mouse; conditions: 10 µM
Procedure: Murine DRGs (from both male and female) were harvested from all spinal segments and digested in dispase (5 mg/ml) / type I collagenase (1 mg/ml) enzyme mix at 37 °C for an hour. Enzyme mix was replaced with complete DH10 media (90% DMEM/F12, 10% FBS, penicillin (100 units/ml), and streptomycin (100 μg/ml)) and gently triturated with 1 ml pipette tip until the media turned cloudy without visible tissue chunks. Dissociated tissues were filtered through a 70 μm filter and spun down 1250 rpm for 5 min at RT. Supernatant was removed and the cell pellet was resuspended in complete DH10 media. Cell suspension was then added on top of poly-D-lysine- and laminin-coated coverslips and sat for 1–2 h at 37°C. Complete DH10 media supplemented with NGF (50 ng/ml) was then added into the vessel. Neurons were allowed to recover overnight at 37°C for the next-day calcium imaging experiment.
Calcium imaging data was collected with a Nikon Eclipse TE 200 microscope. Time series GCaMP6 fluorescence intensity was acquired through the FITC/GFP channel. […] Neurons with GCaMP6 signal rose above 50% of the baseline intensity after compound application were counted as positive responders and the percentage of responding neurons was calculated. […]
(top) and individual (bottom) calcium activity, measured by fluorescence intensity normaliz ed to […]
activity from the recorded neurons is shown in heatmap. […]

mock [4] = assay: Calcium mobilization assay (FLIPR), mock-transfected cells (Fig. 3E and 3F); assay type: cell-based

O=C1NC(c2ccccc2)(c2ccccc2)C(=O)N1COP(=O)(O)O [Fosphenytoin]
calcium response trace, fig. S2B ([1]; Time 0.8024 s, + Vehicle): 1
calcium response trace, fig. S2B ([1]; Time 0.8024 s, + YM254890): 1
calcium response trace, fig. S2B ([1]; Time 3.296 s, + YM254890): 1.0086
calcium response trace, fig. S2B ([1]; Time 5.8096 s, + YM254890): 1.014
calcium response trace, fig. S2B ([1]; Time 8.3136 s, + YM254890): 1.012
calcium response trace, fig. S2B ([1]; Time 10.8264 s, + YM254890): 1.017
calcium response trace, fig. S2B ([1]; Time 13.3408 s, + YM254890): 1.0091
calcium response trace, fig. S2B ([1]; Time 15.8536 s, + YM254890): 1.017
calcium response trace, fig. S2B ([1]; Time 18.3672 s, + YM254890): 1.0038
calcium response trace, fig. S2B ([1]; Time 20.8808 s, + YM254890): 1.022 and 1.026
calcium response trace, fig. S2B ([1]; Time 23.3848 s, + YM254890): 1.023 and 1.0316
calcium response trace, fig. S2B ([1]; Time 25.8984 s, + YM254890): 1.028 and 1.035
calcium response trace, fig. S2B ([1]; Time 28.392 s, + YM254890): 1.036 and 1.04
calcium response trace, fig. S2B ([1]; Time 30.8952 s, + YM254890): 1.032 and 1.039
calcium response trace, fig. S2B ([1]; Time 33.3896 s, + YM254890): 1.039 and 1.042
calcium response trace, fig. S2B ([1]; Time 35.8728 s, + YM254890): 1.035 and 1.045
calcium response trace, fig. S2B ([1]; Time 38.3656 s, + YM254890): 1.038 and 1.049
calcium response trace, fig. S2B ([1]; Time 40.86 s, + YM254890): 1.038 and 1.045
calcium response trace, fig. S2B ([1]; Time 43.3632 s, + YM254890): 1.041 and 1.036
calcium response trace, fig. S2B ([1]; Time 45.8664 s, + YM254890): 1.037 and 1.041
calcium response trace, fig. S2B ([1]; Time 48.38 s, + YM254890): 1.051 and 1.044
calcium response trace, fig. S2B ([1]; Time 50.8936 s, + YM254890): 1.041 and 1.044
calcium response trace, fig. S2B ([1]; Time 53.4072 s, + YM254890): 1.038 and 1.0407
calcium response trace, fig. S2B ([1]; Time 55.9112 s, + YM254890): 1.034 and 1.044
calcium response trace, fig. S2B ([1]; Time 58.4248 s, + YM254890): 1.04 and 1.039
calcium response trace, fig. S2B ([1]; Time 60.9288 s, + YM254890): 1.042 and 1.044
calcium response trace, fig. S2B ([1]; Time 63.444 s, + YM254890): 1.04 and 1.035
calcium response trace, fig. S2B ([1]; Time 65.9256 s, + YM254890): 1.037
calcium response trace, fig. S2B ([1]; Time 68.4192 s, + YM254890): 1.036
calcium response trace, fig. S2B ([1]; Time 70.9024 s, + YM254890): 1.036
calcium response trace, fig. S2B ([1]; Time 73.3864 s, + YM254890): 1.029
calcium response trace, fig. S2B ([1]; Time 75.8896 s, + YM254890): 1.034
calcium response trace, fig. S2B ([1]; Time 78.3936 s, + YM254890): 1.032
calcium response trace, fig. S2B ([1]; Time 80.9064 s, + YM254890): 1.03
calcium response trace, fig. S2B ([1]; Time 83.4104 s, + YM254890): 1.032
calcium response trace, fig. S2B ([1]; Time 85.9136 s, + YM254890): 1.031
calcium response trace, fig. S2B ([1]; Time 88.4176 s, + YM254890): 1.027
calcium response trace, fig. S2B ([1]; Time 90.9336 s, + YM254890): 1.025
calcium response trace, fig. S2B ([1]; Time 93.4144 s, + YM254890): 1.031
calcium response trace, fig. S2B ([1]; Time 95.908 s, + YM254890): 1.026
calcium response trace, fig. S2B ([1]; Time 98.4016 s, + YM254890): 1.025
calcium response trace, fig. S2B ([1]; Time 100.895 s, + YM254890): 1.029
calcium response trace, fig. S2B ([1]; Time 103.389 s, + YM254890): 1.027
calcium response trace, fig. S2B ([1]; Time 105.892 s, + YM254890): 1.0264
calcium response trace, fig. S2B ([1]; Time 108.406 s, + YM254890): 1.031
calcium response trace, fig. S2B ([1]; Time 110.9 s, + YM254890): 1.026
calcium response trace, fig. S2B ([1]; Time 113.413 s, + YM254890): 1.02
calcium response trace, fig. S2B ([1]; Time 115.917 s, + YM254890): 1.023
calcium response trace, fig. S2B ([1]; Time 118.43 s, + YM254890): 1.023
calcium response trace, fig. S2B ([1]; Time 120.934 s, + YM254890): 1.021
calcium response trace, fig. S2B ([1]; Time 123.45 s, + YM254890): 1.02
calcium response trace, fig. S2B ([1]; Time 125.93 s, + YM254890): 1.014
calcium response trace, fig. S2B ([1]; Time 128.414 s, + YM254890): 1.021
calcium response trace, fig. S2B ([1]; Time 130.908 s, + YM254890): 1.026
calcium response trace, fig. S2B ([1]; Time 133.402 s, + YM254890): 1.02
calcium response trace, fig. S2B ([1]; Time 135.905 s, + YM254890): 1.011
calcium response trace, fig. S2B ([1]; Time 138.41 s, + YM254890): 1.019
calcium response trace, fig. S2B ([1]; Time 140.942 s, + YM254890): 1.016
calcium response trace, fig. S2B ([1]; Time 143.446 s, + YM254890): 1.018
calcium response trace, fig. S2B ([1]; Time 145.949 s, + YM254890): 1.014
calcium response trace, fig. S2B ([1]; Time 148.465 s, + YM254890): 1.02
calcium response trace, fig. S2B ([1]; Time 150.996 s, + YM254890): 1.016
calcium response trace, fig. S2B ([1]; Time 153.49 s, + YM254890): 1.011
calcium response trace, fig. S2B ([1]; Time 156.003 s, + YM254890): 1.016
calcium response trace, fig. S2B ([1]; Time 158.497 s, + YM254890): 1.014
calcium response trace, fig. S2B ([1]; Time 161 s, + YM254890): 1.008
calcium response trace, fig. S2B ([1]; Time 163.494 s, + YM254890): 1.02
calcium response trace, fig. S2B ([1]; Time 165.987 s, + YM254890): 1.0117
calcium response trace, fig. S2B ([1]; Time 168.481 s, + YM254890): 1.018
calcium response trace, fig. S2B ([1]; Time 170.974 s, + YM254890): 1.011
calcium response trace, fig. S2B ([1]; Time 173.488 s, + YM254890): 1.015
calcium response trace, fig. S2B ([1]; Time 175.991 s, + YM254890): 1.0057
calcium response trace, fig. S2B ([1]; Time 178.505 s, + YM254890): 1.009
calcium response trace, fig. S2B ([1]; Time 181.018 s, + YM254890): 1.011
calcium response trace, fig. S2B ([1]; Time 183.532 s, + YM254890): 1.014
calcium response trace, fig. S2B ([1]; Time 186.036 s, + YM254890): 1.016
calcium response trace, fig. S2B ([1]; Time 188.549 s, + YM254890): 1.014
calcium response trace, fig. S2B ([1]; Time 191.053 s, + YM254890): 1.017
calcium response trace, fig. S2B ([1]; Time 193.556 s, + YM254890): 1.013
calcium response trace, fig. S2B ([1]; Time 196.05 s, + YM254890): 1.011
calcium response trace, fig. S2B ([1]; Time 198.533 s, + YM254890): 1.011
Solubility relative to parent drug ([2]; vs phenytoin): 4500 fold
Calcium mobilization response, dose-response replicate data (Fig. 3E and 3F) (mock [3]; concentration 188 pM): 2.751 and 6.052 and -2.532
Calcium mobilization response, dose-response replicate data (Fig. 3E and 3F) (mock [3]; concentration 565 pM): 4.071 and -5.503 and 12.3245
Calcium mobilization response, dose-response replicate data (Fig. 3E and 3F) (mock [3]; concentration 1.69e-9 M): 4.071 and 3.081 and -1.212
Calcium mobilization response, dose-response replicate data (Fig. 3E and 3F) (mock [3]; concentration 5.08e-9 M): 3.411 and -2.202
Calcium mobilization response, dose-response replicate data (Fig. 3E and 3F) (mock [3]; concentration 1.52e-8 M): -1.542 and -1.212 and -3.853
Calcium mobilization response, dose-response replicate data (Fig. 3E and 3F) (mock [3]; concentration 4.57e-8 M): -2.532 and -6.494 and 5.722
Calcium mobilization response, dose-response replicate data (Fig. 3E and 3F) (mock [3]; concentration 1.37e-7 M): -8.474 and 2.091 and 3.411
Calcium mobilization response, dose-response replicate data (Fig. 3E and 3F) (mock [3]; concentration 4.12e-7 M): -2.202 and -3.522 and -0.2212
Calcium mobilization response, dose-response replicate data (Fig. 3E and 3F) (mock [3]; concentration 1.23e-6 M): -8.474 and -1.212 and -3.1923
Calcium mobilization response, dose-response replicate data (Fig. 3E and 3F) (mock [3]; concentration 3.7e-6 M): -6.824 and 3.081 and 0.4401
Calcium mobilization response, dose-response replicate data (Fig. 3E and 3F) (mock [3]; concentration 1.11e-5 M): -13.7563 and -1.212 and 1.1003
Calcium mobilization response, dose-response replicate data (Fig. 3E and 3F) (mock [3]; concentration 3.33e-5 M): -14.4165 and -16.3972 and -5.173
Calcium mobilization response, dose-response replicate data (Fig. 3E and 3F) (mock [3]; concentration 0.0001 M): -29.6022 and -24.6503 and -24.9805
Activation of NP1–3 neuron populations (WT NP1-3 DRG neurons): few neurons were activated

CC(C)c1cccc(C(C)C)c1OCOP(=O)(O)O [Fospropofol]
Solubility relative to parent drug ([2]; vs propofol): 3000 fold
calcium mobilization response (Fig. 3E and 3F dose-response) (mock [4]; 5.08e-9 M): 10.7608 and 18.8313 and 12.7088
calcium mobilization response (Fig. 3E and 3F dose-response) (mock [4]; 1.37e-7 M): 17.7181 and 25.7886 and 28.015
calcium mobilization response (Fig. 3E and 3F dose-response) (mock [4]; 4.12e-7 M): 16.3266 and 13.822 and 21.6142
calcium mobilization response (Fig. 3E and 3F dose-response) (mock [4]; 1.23e-6 M): 32.4677 and 38.8684 and 39.425
calcium mobilization response (Fig. 3E and 3F dose-response) (mock [4]; 3.7e-6 M): 22.4491 and 40.2599 and 25.232
calcium mobilization response (Fig. 3E and 3F dose-response) (mock [4]; 1.11e-5 M): 30.7979 and 29.963 and 39.7033
calcium mobilization response (Fig. 3E and 3F dose-response) (mock [4]; 3.33e-5 M): 34.1374 and 32.1894 and 41.0947
calcium mobilization response (Fig. 3E and 3F dose-response) (mock [4]; 0.0001 M): 28.2933 and 31.0762 and 40.2599
Activation of NP1–3 neuron populations (WT NP1-3 DRG neurons): few neurons were activated
